The values below come from ChEMBL document CHEMBL1201862, “PubChem BioAssay data set” (2004).

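The compound was tested at five concentrations on cells cultured in 96-well plates, with a 48-hour exposure period. Here, GI50 denotes the concentration required for 50% inhibition of growth.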 Activity calls are given as the source filed them. Cut-off read from the data, not from the text of the source: active = GI50 up to about 1.1 µM and inactive = higher.

Among the test systems are CAKI-1; SK-MEL-5; BT-549; SR; HT-29; Malme-3M; A549; ACHN; HOP-62; SF-268; NCI-H226; SNB-19; UO-31; LOX IMVI; DU-145; HOP-92; KM12; MDA-MB-435; MOLT-4; DLD-1.
Test in all cases: NCI anticancer screen, dose series, 48 h

In the case of `Sc1nc2c(c(-c3nc(S)nc4c3CCCCCCCCCC4)n1)CCCCCCCCCC2`, the GI50 with CAKI-1, in the test on SK-MEL-5, in the test with BT-549, in the test on SR, with HT-29 and with Malme-3M was > 100 µM (inactive) each time. Moreover, the GI50 in the test with A549, in the test on ACHN, in the test with HOP-62, in the test with SF-268, with NCI-H226 and in the test on SNB-19 was > 100 µM (inactive) in each case. Moreover, the GI50 in the test with UO-31, in the test on LOX IMVI, with DU-145, in the test with HOP-92, in the test on KM12 and with MDA-MB-435 was > 100 µM (inactive) throughout. Besides, in the test on MOLT-4, the GI50 was > 100 µM (inactive).

As to `OC1=CN=COc2ccccc21`, the GI50 in the test on DLD-1, in the test on HT-29, with Malme-3M, in the test with A549, with ACHN and in the test on HOP-62 was > 100 µM (inactive) in each case. In addition, the GI50 with SF-268 is > 100 µM (inactive); with SNB-19, > 100 µM (inactive); in the test on UO-31, 34.7 µM (inactive); in the test with LOX IMVI, > 100 µM (inactive); with HOP-92 it was > 100 µM (inactive); in the test with KM12, > 100 µM (inactive). Moreover, the GI50 in the test with MOLT-4 is > 100 µM (inactive).

For `Cn1c2ccc(C3=NCCN3)cc2c2cc(C3=NCCN3)ccc21`, the GI50 in the test on CAKI-1 is > 100 µM (inactive); with SK-MEL-5, 31.3 µM (inactive); with BT-549, > 100 µM (inactive); in the test with SR, 18.2 µM (inactive); in the test with HT-29, 7.82 µM (inactive); with Malme-3M, 18.2 µM (inactive). Moreover, the GI50 in the test with A549 was 46.1 µM (inactive); with ACHN, 37.9 µM (inactive); in the test on HOP-62, 15.3 µM (inactive); in the test on SF-268, 0.0463 µM (active); with NCI-H226 it was 30.1 µM (inactive); in the test with SNB-19 it was 42.8 µM (inactive). For the same compound, the GI50 with UO-31 was 56.1 µM (inactive); with LOX IMVI it was 49.4 µM (inactive); in the test on DU-145 it was 26.4 µM (inactive); in the test on HOP-92, 13.4 µM (inactive); in the test on KM12, 1.56 µM (inactive); in the test with MDA-MB-435 it was 61.8 µM (inactive). In addition, the GI50 in the test with MOLT-4 was 0.637 µM (active).

For `CSC1=Nc2ccccc2-c2nc3ccccc3cc2C1`, the GI50 in the test with CAKI-1 is > 100 µM (inactive); in the test with SK-MEL-5, > 100 µM (inactive); in the test with BT-549, > 100 µM (inactive); in the test with SR, 29.9 µM (inactive); in the test with HT-29, > 100 µM (inactive); with Malme-3M, > 100 µM (inactive). Also, the GI50 in the test with A549, with ACHN, in the test with HOP-62, with SF-268, with NCI-H226 and in the test on SNB-19 was > 100 µM (inactive) in each case. In addition, the GI50 with UO-31 is > 100 µM (inactive); in the test on LOX IMVI, > 100 µM (inactive); in the test on DU-145, > 100 µM (inactive); in the test with HOP-92, > 100 µM (inactive); in the test with KM12, 14.4 µM (inactive); in the test with MDA-MB-435, > 100 µM (inactive). For the same compound, the GI50 in the test on MOLT-4 was > 100 µM (inactive).

For `CC12C(=O)N(CCN)C(=O)C1C1c3ccccc3C2c2ccccc21` (centres undefined), the GI50 in the test with CAKI-1 is > 100 µM (inactive); in the test on SK-MEL-5 it was > 100 µM (inactive); in the test on DLD-1, > 100 µM (inactive); with HT-29, 58.3 µM (inactive); with Malme-3M it was > 100 µM (inactive); with A549, > 100 µM (inactive). Also, the GI50 in the test on ACHN, in the test with HOP-62, in the test on SF-268, with NCI-H226, in the test on SNB-19 and in the test with UO-31 was > 100 µM (inactive) in each case. Also, the GI50 in the test on HOP-92 was 28.9 µM (inactive); with KM12 it was > 100 µM (inactive); in the test on MOLT-4 it was > 100 µM (inactive).

As for `CCOC(=O)C1C(=O)CC(O)(c2ccccc2)C(C(=O)OCC)C1c1ccc(N(C)C)cc1` (centres undefined), the GI50 was 51.2 µM (inactive) in the test with CAKI-1; 22.3 µM (inactive) with SK-MEL-5; 28.6 µM (inactive) in the test with BT-549; 7.33 µM (inactive) with SR; 15.8 µM (inactive) in the test with HT-29; 18.2 µM (inactive) in the test with Malme-3M. Also, the GI50 with A549 is 35.5 µM (inactive); in the test on ACHN, 50.4 µM (inactive); with HOP-62, 30.8 µM (inactive); in the test with SF-268, 24.9 µM (inactive); with NCI-H226, 51.4 µM (inactive); in the test with SNB-19 it was 29.9 µM (inactive). In addition, the GI50 with UO-31 is 49.8 µM (inactive); in the test on LOX IMVI it was 27.5 µM (inactive); in the test with DU-145, 57.1 µM (inactive); in the test on HOP-92, 19.7 µM (inactive); in the test on KM12, 20.3 µM (inactive); with MDA-MB-435, 5.04 µM (inactive). For the same compound, the GI50 in the test with MOLT-4 was 23.5 µM (inactive).

Regarding `COc1cc(/C=C2/SC(c3ccccc3)N(c3ccc(Cl)cc3)C2=O)cc(OC)c1OC` (centres undefined), the GI50 in the test with CAKI-1 is > 51.2 µM (inactive); in the test on SK-MEL-5 it was 0.638 µM (active); in the test on BT-549 it was > 59 µM (inactive); in the test with SR it was 7.6 µM (inactive); in the test with HT-29 it was > 100 µM (inactive); in the test with Malme-3M it was 27 µM (inactive). Besides, the GI50 in the test with A549 is > 41.5 µM (inactive); in the test on ACHN, 4.35 µM (inactive); in the test with HOP-62, > 29.4 µM (inactive); in the test on SF-268 it was 19.5 µM (inactive); in the test with NCI-H226, > 100 µM (inactive); in the test with SNB-19, > 58.2 µM (inactive). The GI50 was 10.9 µM (inactive) in the test with UO-31; 50.8 µM (inactive) in the test on LOX IMVI; > 100 µM (inactive) in the test with DU-145; > 100 µM (inactive) in the test on HOP-92; 5.46 µM (inactive) in the test with KM12; 0.436 µM (active) in the test with MDA-MB-435. Further, the GI50 in the test on MOLT-4 is 15.7 µM (inactive).

`CN1/C(=C\N=O)C(C)(C)N(O)C1(C)C`: the GI50 in the test with CAKI-1, in the test with SK-MEL-5, in the test on BT-549, with SR, in the test on HT-29 and in the test with Malme-3M was > 100 µM (inactive) each time. Moreover, the GI50 with A549, with ACHN, with HOP-62, with SF-268, in the test with NCI-H226 and in the test on SNB-19 was > 100 µM (inactive) throughout. Besides, the GI50 in the test on UO-31, in the test on LOX IMVI, in the test with DU-145, in the test with HOP-92, in the test with KM12 and in the test on MDA-MB-435 was > 100 µM (inactive) throughout. Further, the GI50 in the test on MOLT-4 was > 100 µM (inactive).

Turning to `O=C1CC(Sc2nc3ccc(I)cc3c(=O)n2Cc2ccccc2)C(=O)NN1` (centres undefined), the GI50 was 2.81 µM (inactive) in the test with CAKI-1; 16.2 µM (inactive) with SK-MEL-5; 15.7 µM (inactive) in the test on BT-549; 2.73 µM (inactive) with SR; 18.6 µM (inactive) with HT-29; 18.1 µM (inactive) in the test with Malme-3M. Further, the GI50 with A549 was 28.4 µM (inactive); in the test on ACHN it was 16.6 µM (inactive); in the test on HOP-62, 17.4 µM (inactive); in the test on SF-268, 15.9 µM (inactive); with NCI-H226, 5.89 µM (inactive); in the test on SNB-19 it was 19.3 µM (inactive). Moreover, the GI50 with UO-31 is 0.55 µM (active); in the test with LOX IMVI, 3.18 µM (inactive); in the test with DU-145, 20 µM (inactive); in the test on HOP-92, 17.7 µM (inactive); in the test with KM12 it was 17.2 µM (inactive); with MDA-MB-435, 17.7 µM (inactive). Besides, the GI50 in the test with MOLT-4 was 14.3 µM (inactive).

For `Cc1cc(Cl)ccc1NC1=NC(=O)C(CC(=O)Nc2ccc([N+](=O)[O-])cc2[N+](=O)[O-])S1` (centres undefined), the GI50 with CAKI-1 is 26.3 µM (inactive); in the test on SK-MEL-5, 15.6 µM (inactive); in the test with DLD-1 it was 34.1 µM (inactive); with HT-29, 37 µM (inactive); in the test on Malme-3M, 26.1 µM (inactive); in the test on A549, 27.5 µM (inactive). The GI50 was 25.1 µM (inactive) with ACHN; 31.6 µM (inactive) in the test with HOP-62; 38 µM (inactive) in the test on SF-268; 26.9 µM (inactive) in the test on SNB-19; 17.1 µM (inactive) in the test with UO-31; 34.9 µM (inactive) in the test on LOX IMVI. Also, the values for the GI50 in the test with KM12 and in the test on MOLT-4 were 35.1 µM (inactive) and 19.4 µM (inactive), respectively.

As for `NC(=O)c1ccc(N)nc1` [6-AMINONICOTINAMIDE], the GI50 with CAKI-1 is 17.6 µM (inactive); in the test on SK-MEL-5 it was 0.759 µM (active); in the test on BT-549, 14.1 µM (inactive); in the test with SR it was 14.3 µM (inactive); with HT-29, 3.93 µM (inactive); in the test on Malme-3M, 33.2 µM (inactive). The GI50 was 54.5 µM (inactive) in the test on A549; 54.3 µM (inactive) in the test with ACHN; 12 µM (inactive) with HOP-62; 19.1 µM (inactive) in the test on SF-268; 35.7 µM (inactive) with NCI-H226; 14.7 µM (inactive) in the test with SNB-19. Moreover, the GI50 was 29.4 µM (inactive) with UO-31; 3.35 µM (inactive) with LOX IMVI; 2.3 µM (inactive) in the test on DU-145; 213 µM (inactive) with HOP-92; 48.1 µM (inactive) with KM12; 4.66 µM (inactive) in the test with MDA-MB-435. In the test with MOLT-4, the GI50 was 38.6 µM (inactive).
